Assay results taken from ChEMBL document CHEMBL4507311, “Data for DCP probe A-1155463” (2021).

Tests used:
[1] = target: Leucine-rich repeat serine/threonine-protein kinase 2 (Homo sapiens) (UniProt Q5S007); conditions: Compound concentration 1000.0 nM
[2] = target: Rhodopsin kinase GRK1 (Homo sapiens) (UniProt Q15835); conditions: Compound concentration 1000.0 nM
[3] = target: Tyrosine-protein kinase JAK2 (Homo sapiens) (UniProt O60674); conditions: Compound concentration 1000.0 nM
[4] = target: Ephrin type-A receptor 7 (Homo sapiens) (UniProt Q15375); conditions: Compound concentration 1000.0 nM
[5] = system: Phosphatidylinositol 4,5-bisphosphate 3-kinase catalytic subunit alpha isoform (Homo sapiens), P42336 [M1043I]; conditions: Compound concentration 1000.0 nM
Phosphatidylinositol 4,5-bisphosphate 3-kinase catalytic subunit alpha isoform (Homo sapiens), P42336 [M1043I], sequence (P42336 whole entry M1043I, canonical isoform): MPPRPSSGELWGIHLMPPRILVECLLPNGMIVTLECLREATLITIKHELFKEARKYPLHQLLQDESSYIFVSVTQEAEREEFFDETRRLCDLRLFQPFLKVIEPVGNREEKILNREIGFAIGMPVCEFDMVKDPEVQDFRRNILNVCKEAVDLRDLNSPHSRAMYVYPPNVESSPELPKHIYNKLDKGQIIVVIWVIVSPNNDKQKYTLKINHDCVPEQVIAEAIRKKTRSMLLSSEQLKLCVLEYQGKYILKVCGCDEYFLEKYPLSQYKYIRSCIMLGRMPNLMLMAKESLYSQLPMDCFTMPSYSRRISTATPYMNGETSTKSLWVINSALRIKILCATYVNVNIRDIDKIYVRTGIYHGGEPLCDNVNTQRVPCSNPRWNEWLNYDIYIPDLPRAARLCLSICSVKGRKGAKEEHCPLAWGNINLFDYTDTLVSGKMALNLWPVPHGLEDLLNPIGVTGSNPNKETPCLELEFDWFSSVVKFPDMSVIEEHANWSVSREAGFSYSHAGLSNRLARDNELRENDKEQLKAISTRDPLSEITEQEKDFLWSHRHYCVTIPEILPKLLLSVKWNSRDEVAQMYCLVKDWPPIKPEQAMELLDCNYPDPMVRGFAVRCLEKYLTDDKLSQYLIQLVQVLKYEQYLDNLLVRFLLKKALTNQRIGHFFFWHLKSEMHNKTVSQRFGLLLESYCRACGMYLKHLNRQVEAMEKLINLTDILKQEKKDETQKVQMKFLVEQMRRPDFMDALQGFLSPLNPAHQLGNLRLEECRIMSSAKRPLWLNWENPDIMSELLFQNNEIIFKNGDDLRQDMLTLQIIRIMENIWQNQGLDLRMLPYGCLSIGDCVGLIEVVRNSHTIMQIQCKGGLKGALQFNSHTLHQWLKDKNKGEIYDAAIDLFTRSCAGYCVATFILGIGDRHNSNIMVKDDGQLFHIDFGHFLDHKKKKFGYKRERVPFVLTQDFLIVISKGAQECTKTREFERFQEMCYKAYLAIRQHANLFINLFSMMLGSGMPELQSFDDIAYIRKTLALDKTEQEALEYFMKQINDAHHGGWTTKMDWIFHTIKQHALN

[6] = target: Protein kinase C theta type (Homo sapiens) (UniProt Q04759); conditions: Compound concentration 1000.0 nM
Protein kinase C theta type (Homo sapiens), sequence (Q04759 whole entry, looked up): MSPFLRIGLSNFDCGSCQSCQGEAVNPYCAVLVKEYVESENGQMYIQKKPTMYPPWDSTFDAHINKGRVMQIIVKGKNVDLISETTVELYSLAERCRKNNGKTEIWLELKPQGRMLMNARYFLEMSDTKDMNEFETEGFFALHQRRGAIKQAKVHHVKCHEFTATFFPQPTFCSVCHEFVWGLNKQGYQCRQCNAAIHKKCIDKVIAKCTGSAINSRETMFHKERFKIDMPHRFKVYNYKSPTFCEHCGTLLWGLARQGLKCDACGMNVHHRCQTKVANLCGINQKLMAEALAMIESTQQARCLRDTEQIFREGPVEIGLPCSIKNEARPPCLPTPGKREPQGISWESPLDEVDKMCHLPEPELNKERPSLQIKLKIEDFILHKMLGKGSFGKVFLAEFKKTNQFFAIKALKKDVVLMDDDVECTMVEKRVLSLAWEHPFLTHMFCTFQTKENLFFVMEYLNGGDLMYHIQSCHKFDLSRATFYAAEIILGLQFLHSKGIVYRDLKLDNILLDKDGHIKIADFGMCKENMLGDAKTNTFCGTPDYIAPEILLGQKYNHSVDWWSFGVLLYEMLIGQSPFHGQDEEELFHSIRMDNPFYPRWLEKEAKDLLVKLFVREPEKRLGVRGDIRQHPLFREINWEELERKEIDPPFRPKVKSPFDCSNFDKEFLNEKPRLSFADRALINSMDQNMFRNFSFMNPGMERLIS

[7] = target: Tyrosine-protein kinase Srms (Homo sapiens) (UniProt Q9H3Y6); conditions: Compound concentration 1000.0 nM
[8] = target: G protein-coupled receptor kinase 4 (Homo sapiens) (UniProt P32298); conditions: Compound concentration 1000.0 nM
[9] = target: Serine/threonine-protein kinase tousled-like 2 (Homo sapiens) (UniProt Q86UE8); conditions: Compound concentration 1000.0 nM
Serine/threonine-protein kinase tousled-like 2 (Homo sapiens), sequence (Q86UE8 whole entry, looked up): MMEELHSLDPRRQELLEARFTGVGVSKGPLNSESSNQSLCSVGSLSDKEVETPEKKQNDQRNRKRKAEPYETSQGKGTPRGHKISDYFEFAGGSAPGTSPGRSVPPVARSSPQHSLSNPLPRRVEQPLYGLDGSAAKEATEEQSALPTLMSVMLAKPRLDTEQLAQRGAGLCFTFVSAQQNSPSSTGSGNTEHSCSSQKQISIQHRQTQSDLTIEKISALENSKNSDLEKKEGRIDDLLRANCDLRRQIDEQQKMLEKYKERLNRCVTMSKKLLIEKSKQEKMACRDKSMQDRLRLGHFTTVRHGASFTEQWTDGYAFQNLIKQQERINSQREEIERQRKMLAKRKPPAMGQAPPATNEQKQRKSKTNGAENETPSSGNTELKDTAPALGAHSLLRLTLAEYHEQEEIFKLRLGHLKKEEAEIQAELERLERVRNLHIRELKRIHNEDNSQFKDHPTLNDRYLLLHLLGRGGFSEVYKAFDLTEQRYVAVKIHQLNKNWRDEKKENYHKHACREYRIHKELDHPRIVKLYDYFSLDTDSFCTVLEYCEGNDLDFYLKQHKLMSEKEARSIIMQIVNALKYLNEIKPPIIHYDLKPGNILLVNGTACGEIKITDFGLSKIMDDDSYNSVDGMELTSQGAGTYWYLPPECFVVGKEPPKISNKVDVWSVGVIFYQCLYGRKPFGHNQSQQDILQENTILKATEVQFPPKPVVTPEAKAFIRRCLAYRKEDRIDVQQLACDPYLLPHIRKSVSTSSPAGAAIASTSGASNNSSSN

[10] = target: 5'-AMP-activated protein kinase catalytic subunit alpha-1 (Homo sapiens) (UniProt Q13131); conditions: Compound concentration 1000.0 nM
5'-AMP-activated protein kinase catalytic subunit alpha-1 (Homo sapiens), sequence (Q13131 whole entry, looked up): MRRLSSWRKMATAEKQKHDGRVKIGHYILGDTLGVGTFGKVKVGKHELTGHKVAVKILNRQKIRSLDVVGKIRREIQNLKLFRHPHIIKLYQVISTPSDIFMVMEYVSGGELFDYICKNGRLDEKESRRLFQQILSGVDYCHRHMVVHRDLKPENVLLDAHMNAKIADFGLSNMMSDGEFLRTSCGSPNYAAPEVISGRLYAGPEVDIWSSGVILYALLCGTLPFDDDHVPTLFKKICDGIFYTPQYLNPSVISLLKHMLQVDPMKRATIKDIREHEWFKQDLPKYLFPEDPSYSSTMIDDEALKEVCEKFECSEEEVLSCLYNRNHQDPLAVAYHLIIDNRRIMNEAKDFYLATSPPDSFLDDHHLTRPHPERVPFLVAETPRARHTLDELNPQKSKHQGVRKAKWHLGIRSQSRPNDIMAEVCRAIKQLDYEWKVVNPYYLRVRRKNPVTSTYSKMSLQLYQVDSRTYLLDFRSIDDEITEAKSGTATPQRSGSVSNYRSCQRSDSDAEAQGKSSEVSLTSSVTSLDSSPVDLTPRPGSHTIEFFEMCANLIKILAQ

[11] = target: Serine/threonine-protein kinase Nek11 (Homo sapiens) (UniProt Q8NG66); conditions: Compound concentration 1000.0 nM
Serine/threonine-protein kinase Nek11 (Homo sapiens), sequence (Q8NG66 whole entry): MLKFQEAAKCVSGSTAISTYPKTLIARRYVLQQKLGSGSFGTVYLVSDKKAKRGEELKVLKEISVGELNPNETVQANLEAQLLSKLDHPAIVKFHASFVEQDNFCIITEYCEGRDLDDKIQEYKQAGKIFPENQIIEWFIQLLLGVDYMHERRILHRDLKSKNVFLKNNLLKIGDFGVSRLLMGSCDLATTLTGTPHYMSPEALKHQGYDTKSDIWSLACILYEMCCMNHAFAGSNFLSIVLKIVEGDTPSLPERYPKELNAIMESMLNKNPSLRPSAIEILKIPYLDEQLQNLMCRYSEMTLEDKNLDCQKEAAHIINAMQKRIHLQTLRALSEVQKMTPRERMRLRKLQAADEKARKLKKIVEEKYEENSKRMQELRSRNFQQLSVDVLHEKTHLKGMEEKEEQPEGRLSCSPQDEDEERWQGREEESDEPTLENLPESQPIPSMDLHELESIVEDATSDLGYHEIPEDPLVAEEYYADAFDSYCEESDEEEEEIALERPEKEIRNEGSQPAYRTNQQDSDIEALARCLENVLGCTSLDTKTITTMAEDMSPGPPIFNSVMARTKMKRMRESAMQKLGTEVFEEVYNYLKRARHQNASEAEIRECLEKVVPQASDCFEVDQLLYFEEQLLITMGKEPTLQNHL

[12] = target: Mitogen-activated protein kinase kinase kinase 6 (Homo sapiens) (UniProt O95382); conditions: Compound concentration 1000.0 nM
[13] = target: Mitogen-activated protein kinase 14 (Homo sapiens) (UniProt Q16539); conditions: Compound concentration 1000.0 nM
Mitogen-activated protein kinase 14 (Homo sapiens), sequence (Q16539 whole entry): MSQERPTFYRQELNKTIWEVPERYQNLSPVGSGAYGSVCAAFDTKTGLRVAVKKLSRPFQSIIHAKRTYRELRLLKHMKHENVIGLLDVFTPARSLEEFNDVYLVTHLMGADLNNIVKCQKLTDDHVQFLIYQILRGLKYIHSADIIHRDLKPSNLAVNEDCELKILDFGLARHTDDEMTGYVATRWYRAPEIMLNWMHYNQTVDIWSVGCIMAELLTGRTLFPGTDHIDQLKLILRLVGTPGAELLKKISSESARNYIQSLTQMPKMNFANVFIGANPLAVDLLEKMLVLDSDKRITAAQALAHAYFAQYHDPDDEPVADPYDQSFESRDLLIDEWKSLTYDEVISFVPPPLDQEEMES

[14] = target: Serine/threonine-protein kinase ULK3 (Homo sapiens) (UniProt Q6PHR2); conditions: Compound concentration 1000.0 nM
[15] = target: Serine/threonine-protein kinase PAK 4 (Homo sapiens) (UniProt O96013); conditions: Compound concentration 1000.0 nM
[16] = target: Tyrosine-protein kinase TXK (Homo sapiens) (UniProt P42681); conditions: Compound concentration 1000.0 nM
[17] = target: Serine/threonine-protein kinase 33 (Homo sapiens) (UniProt Q9BYT3); conditions: Compound concentration 1000.0 nM
Serine/threonine-protein kinase 33 (Homo sapiens), sequence (Q9BYT3 whole entry, looked up, the tested form may be a part): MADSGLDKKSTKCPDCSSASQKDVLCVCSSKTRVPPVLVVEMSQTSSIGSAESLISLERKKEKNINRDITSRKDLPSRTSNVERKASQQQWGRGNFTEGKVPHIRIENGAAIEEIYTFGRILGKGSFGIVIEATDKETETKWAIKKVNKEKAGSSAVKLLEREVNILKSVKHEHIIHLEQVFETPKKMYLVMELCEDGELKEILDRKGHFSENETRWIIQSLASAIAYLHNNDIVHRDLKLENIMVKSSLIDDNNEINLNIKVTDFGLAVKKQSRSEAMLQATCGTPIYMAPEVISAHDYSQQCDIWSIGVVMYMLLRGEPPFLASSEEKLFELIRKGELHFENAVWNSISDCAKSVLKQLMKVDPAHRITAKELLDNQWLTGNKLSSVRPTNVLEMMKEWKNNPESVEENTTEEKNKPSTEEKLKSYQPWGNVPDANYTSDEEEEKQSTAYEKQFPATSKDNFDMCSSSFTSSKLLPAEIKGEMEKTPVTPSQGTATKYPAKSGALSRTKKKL

[18] = target: Ankyrin repeat and protein kinase domain-containing protein 1 (Homo sapiens) (UniProt Q8NFD2); conditions: Compound concentration 1000.0 nM
[19] = system: Receptor-type tyrosine-protein kinase FLT3 (Homo sapiens), P36888 [N841I]; conditions: Compound concentration 1000.0 nM
[20] = target: Mitogen-activated protein kinase kinase kinase 5 (Homo sapiens) (UniProt Q99683); conditions: Compound concentration 1000.0 nM
[21] = target: Serine/threonine-protein kinase N2 (Homo sapiens) (UniProt Q16513); conditions: Compound concentration 1000.0 nM
[22] = target: T1, Alpha-1B adrenergic receptor (Homo sapiens) (UniProt P35368); conditions: Compound concentration 10.0 uM
T1 sequence (whole entry): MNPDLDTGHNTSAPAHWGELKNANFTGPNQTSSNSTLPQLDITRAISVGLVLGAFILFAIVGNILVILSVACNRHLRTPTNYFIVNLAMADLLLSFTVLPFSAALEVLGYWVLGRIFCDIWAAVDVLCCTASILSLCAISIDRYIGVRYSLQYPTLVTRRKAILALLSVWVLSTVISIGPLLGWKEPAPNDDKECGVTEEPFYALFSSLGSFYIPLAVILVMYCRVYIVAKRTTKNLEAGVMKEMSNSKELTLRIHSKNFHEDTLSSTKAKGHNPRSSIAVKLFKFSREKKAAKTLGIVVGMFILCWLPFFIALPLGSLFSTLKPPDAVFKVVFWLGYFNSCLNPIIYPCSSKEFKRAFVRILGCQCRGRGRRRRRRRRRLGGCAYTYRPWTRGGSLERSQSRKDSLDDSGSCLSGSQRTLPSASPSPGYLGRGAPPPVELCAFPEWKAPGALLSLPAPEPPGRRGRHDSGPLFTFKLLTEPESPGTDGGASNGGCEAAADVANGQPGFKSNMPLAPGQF

[23] = target: Ribosomal protein S6 kinase alpha-3 (Homo sapiens) (UniProt P51812); conditions: Compound concentration 1000.0 nM
[24] = target: High affinity nerve growth factor receptor (Homo sapiens) (UniProt P04629); conditions: Compound concentration 1000.0 nM
[25] = target: T2, Muscarinic acetylcholine receptor M2 (Homo sapiens) (UniProt P08172); conditions: Compound concentration 10.0 uM
T2 sequence (whole entry): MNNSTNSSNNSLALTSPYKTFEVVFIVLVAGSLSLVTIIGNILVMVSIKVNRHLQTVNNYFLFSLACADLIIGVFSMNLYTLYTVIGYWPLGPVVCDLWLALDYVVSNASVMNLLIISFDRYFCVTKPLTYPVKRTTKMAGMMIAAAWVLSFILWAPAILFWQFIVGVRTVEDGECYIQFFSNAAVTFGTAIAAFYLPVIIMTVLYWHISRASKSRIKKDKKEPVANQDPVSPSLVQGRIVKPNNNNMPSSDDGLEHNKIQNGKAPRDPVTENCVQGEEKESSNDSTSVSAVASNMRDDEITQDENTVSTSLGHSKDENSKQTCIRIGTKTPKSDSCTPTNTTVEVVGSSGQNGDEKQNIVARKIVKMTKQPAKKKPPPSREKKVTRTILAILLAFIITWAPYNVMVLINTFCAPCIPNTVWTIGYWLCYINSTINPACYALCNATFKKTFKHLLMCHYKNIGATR

[26] = target: Atypical kinase COQ8B, mitochondrial (Homo sapiens) (UniProt Q96D53); conditions: Compound concentration 1000.0 nM
[27] = target: Tyrosine-protein kinase ABL1 (Homo sapiens) (UniProt P00519); conditions: Compound concentration 1000.0 nM
[28] = target: Ephrin type-A receptor 4 (Homo sapiens) (UniProt P54764); conditions: Compound concentration 1000.0 nM
[29] = target: Myosin light chain kinase (Homo sapiens) (UniProt Q32MK0); conditions: Compound concentration 1000.0 nM
[30] = target: Serine/threonine-protein kinase mTOR (Homo sapiens) (UniProt P42345); conditions: Compound concentration 1000.0 nM
[31] = target: Glycogen synthase kinase-3 beta (Homo sapiens) (UniProt P49841); conditions: Compound concentration 1000.0 nM
Glycogen synthase kinase-3 beta (Homo sapiens), sequence (P49841 whole entry, looked up): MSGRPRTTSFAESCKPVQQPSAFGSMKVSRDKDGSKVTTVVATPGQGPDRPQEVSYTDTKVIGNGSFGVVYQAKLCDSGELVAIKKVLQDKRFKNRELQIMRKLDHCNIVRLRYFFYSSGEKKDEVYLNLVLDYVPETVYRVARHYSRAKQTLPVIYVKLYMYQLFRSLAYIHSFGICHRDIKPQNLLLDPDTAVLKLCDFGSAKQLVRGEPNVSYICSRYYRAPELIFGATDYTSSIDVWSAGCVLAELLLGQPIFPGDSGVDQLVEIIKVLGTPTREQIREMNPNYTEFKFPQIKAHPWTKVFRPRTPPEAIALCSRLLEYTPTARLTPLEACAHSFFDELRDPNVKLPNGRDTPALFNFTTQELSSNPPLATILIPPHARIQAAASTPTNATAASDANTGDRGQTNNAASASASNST

[32] = target: Cyclin-dependent kinase-like 1 (Homo sapiens) (UniProt Q00532); conditions: Compound concentration 1000.0 nM

CN(C)CC#Cc1ccc(OCCCc2sc(N3CCc4cccc(C(=O)Nc5nc6ccccc6s5)c4C3)nc2C(=O)O)c(F)c1 [A-1155463]
inactive: residual activity [1] 100% | residual activity [2] 95% | residual activity [3] 100% | residual activity [4] 99% | residual activity [5] 96% | residual activity [6] 92% | residual activity [7] 100% | residual activity [8] 100% | residual activity [9] 100% | residual activity [10] 100% | residual activity [11] 100% | residual activity [12] 82% | residual activity [13] 100% | residual activity [14] 100% | residual activity [15] 96% | residual activity [16] 100% | residual activity [17] 100% | residual activity [18] 69% | residual activity [19] 81% | residual activity [20] 94% | residual activity [21] 100% | inhibition [22] 0.97% | residual activity [23] 100% | residual activity [24] 100% | inhibition [25] 34.7% | residual activity [26] 99% | residual activity [27] 93% | residual activity [28] 88% | residual activity [29] 78% | residual activity [30] 100% | residual activity [31] 93% | residual activity [32] 100%
